Assay results from patent US20130225669A1 (priority 2012, published 2013).
Where “and” joins values, the source holds several entries; their conditions need not be identical. Identical values can stand only once. Entries after “also recorded” stand apart in the source; their conditions may differ. Like-named read-outs stand apart in the source and are kept apart here.

Experiments:
[1] = test system: Bacillus subtilis var. niger spores; type: cell-based; settings: for spore strips sterilized: room temperature (Example 6)
Method: The sterilization potential of genipin was measured by treating B. subtilis mini spore strips with 1.2×10^6 bacterial spores (ATCC 9372, North American Science Associates, Inc., Northwood, Ohio) with 0.5 mL of sterile 1:1 dimethyl sulfoxide (Avantor Performance Materials, Inc., Center Valley, Pa.): phosphate-buffered saline (Fisher Scientific, Pittsburgh, Pa.) (DMSO: PBS, v/v); 2%, 6%, and 10% genipin in 1:1 DMSO:PBS; and 10% formalin (Fisher Scientific, Pittsburgh, Pa.) (N=4 per group). Genipin treatments corresponded to 8.3 mg, 25 mg, and 42 mg genipin per 10^6 spores for the 2%, 6%, and 10% groups, respectively. Treatment was conducted at room temperature, 20-25° C., for 24 hours and 72 hours. Spore strips were subsequently washed with sterile water and aseptically transferred to Releasat® rapid-readout color changing vials (SGM Biotech, Bozeman, Mont.) which have soybean-casein digest medium with the pH indicator phenol red, designed to change color from orange to yellow in the presence of spore germination and proliferation. Spores were incubated for one week at 37° C.
B. subtilis mini spores strips with 1.2×10^6 spores were treated with 0.5 mL of sterile PBS and 1:1 DMSO:PBS without genipin; 0.03%, 0.32%, and 0.63% genipin in 1:1 DMSO: PBS; 0.63% genipin in PBS; and 10% formalin for 72 hours at room temperature (N=4 per group). Genipin treatments corresponded to 0.13 mg, 1.3 mg, and 2.6 mg genipin per 10^6 spores for the 0.03%, 0.32%, and 0.63% groups, respectively. Spore strips were subsequently washed with sterile water, aseptically transferred to Releasat® vials, and incubated for one week at 37° C.
B. subtilis mini spores strips with 1.2×10^6 spores were treated with 0.5 mL of sterile 1:1 DMSO:PBS without genipin; 0.63%, 2%, 6%, and 10% genipin in 1:1 DMSO:PBS; and 10% formalin for 72 hours at room temperature (N=4 per group). Spore strips were subsequently washed with sterile water, aseptically transferred to Releasat® vials, and incubated for one week at 37° C.
A priori power analysis was performed with G*Power (G*Power 3.1.3, Kiel, Germany). To detect at least a one-log difference in population assays, comparing groups at an α=0.05 and power >0.999 required N=3 per group. One-tailed Mann-Whitney U tests were performed for comparing population assay groups. Chi squared tests and binomial exact confidence intervals were performed comparing spore viability against expected spore counts for dichotomous (sterile, non-sterile) growth in medium based on the manufacturer's certificate of analysis (COA), and the population assays (PA, for B. subtilis only), using Minitab 16 (Minitab, Inc., State College, Pa.). Statistical significance was set at p≦0.05.

[2] = test system: Bacillus subtilis var. niger spores; type: cell-based; settings: for colonies at the 1-log reduction level: 72 hours, room temperature
Method: B. subtilis mini spores strips with 1.2×10^6 spores were treated with 0.5 mL of sterile PBS; 1:1 DMSO:PBS without genipin; 0.63%, 2%, 6%, and 10% genipin in 1:1 DMSO:PBS; and 10% formalin for 72 hours at room temperature (N=4 per group). Spore strips were then washed with sterile water and then aseptically macerated, serially diluted, and plated onto petri dishes with soybean-casein digest agar (Mo Bio Laboratories, Carlsbad, Calif.). Spores were incubated for 48 hours at 32.5° C. after which time colony counts were performed.

B. subtilis spores = assay: Scanning electron microscopy of genipin-treated spores; type: cell-based; settings: 10% and 0.63% genipin in 1:1 DMSO:PBS, 72 hours, room temperature
Method: The morphology of B. subtilis was evaluated using scanning electron microscopy. Spore strips were either untreated, treated with 0.5 mL of sterile 1:1 DMSO:PBS without genipin, or 0.5 mL of sterile 0.63% or 10% genipin in 1:1 DMSO:PBS for 72 hours at room temperature. After treatment, spore strips were washed with sterile water and dehydrated with increasing concentrations of ethanol (70%, 80%, 90%, and 100%) and subjected to critical point drying. The spore strips were mounted onto a stage, sputter coated with gold, and visualized under a scanning electron microscopy (Hitachi S-4500 Cold Field Emission SEM, Hitachi, Ltd., Tokyo, Japan).

B. pumilus spores = assay: Spore strip sterilization, soybean-casein medium; type: cell-based; settings: 72 hours
Method: (§1) Spore strips of B. pumilus (ATCC 27142) with 1.9×10^6 spores (SGM Biotech, Bozeman, Mont.) and G. stearothermophilus (ATCC 7953) with 1.9×10^6 spores (SGM Biotech, Bozeman, Mont.) were treated with doses of genipin equivalent to those that sterilized of B. subtilis. B. pumilus conventional spore strips were treated with 1.75 mL of solution and G stearothermophilus mini spore strips were treated with 0.5 mL of solution. Spore strips were treated with 1:1 DMSO:PBS; 2.6 mg, 8.3 mg, 25 mg, and […] genipin per 10^6 spores in 1:1 DMSO:PBS; and 10% formalin (N=4). After treatment for 72 hours spore strips were washed and transferred to soybean-casein medium (Becton Dickinson, Franklin Lanes, N.J.). B. pumilus was incubated at 32.5° C. and G stearothermophilus was incubated at 57.5° C.

[3] = test system: Geobacillus stearothermophilus spores; assay: Spore strip sterilization, soybean-casein medium; type: cell-based
Method: as §1

[4] = test system: Bacillus subtilis var. niger spores; type: cell-based
3T3 fibroblasts = settings: in vitro; cited from earlier work
[5] = test system: Chinese hamster ovary (CHO-K1) cells; settings: in vitro; cited from earlier work
[6] = cited from earlier work
cells in culture = settings: 2200 μMolar sterile genipin; cited from earlier work
fibroblasts [7] = settings: cited from earlier work
[8] = test system: bovine nucleus pulposus cells; settings: cells entrapped in chitosan gels crosslinked with 5% genipin; cited from earlier work
fibroblasts [9] = settings: cells directly exposed to genipin solution; cited from earlier work
osteoblasts = settings: cells directly exposed to genipin solution; cited from earlier work
[10] = cited from earlier work; remark: listed apart in the source
[11] = test system: over 40 bacterial (non-spore forms) and fungal species; settings: most 20-40%; cited from earlier work
[12] = 0.03% genipin in 1:1 DMSO:PBS, 72 hours, room temperature
[13] = 0.32% genipin in 1:1 DMSO:PBS, 72 hours, room temperature

For `COC(=O)C1=CO[C@@H](O)C2C(CO)=CC[C@H]12` (stereo in doubt) [genipin, methyl (1R,2R,6S)-2-hydroxy-9-(hydroxymethyl)-3-oxabicyclo [4.3.0]nona-4,8-diene-5-carboxylate], the “log reduction in spore viability” value [1, 12] was 5- to 6 log and > 5 log, the spore strips sterile [1, 12] was “two of four” and the “log reduction in spore viability” value [1, 13] was 5- to 6 log and > 5 log. For the same molecule, the spore strips sterile [1, 13] was “one of four”, the spore strips sterile ([1]; 0.63% genipin in 1:1 DMSO:PBS, 72 hours, room temperature (Example 7)) was “Three of four” and the spore strip viability/sterility ([1]; 0.63% genipin in PBS, 72 hours, room temperature) was “demonstrated viability”. For the same molecule, the “log reduction in spore viability” value ([1]; 0.63% genipin, all doses of DMSO (0-50%), 37° C.) was no less than 6 log, the spore strip viability/sterility ([1]; 0.63%, 2%, 6%, 10% genipin in 1:1 DMSO:PBS, 72 hours, room temperature (confirmation, Example 8)) was “sterilized the spore strips” and the “log reduction in spore viability” value ([1]; 0.63%-10% genipin in 1:1 DMSO:PBS, 72 hours, room temperature (confirmatory experiment)) was “at least 6 log”. For the same molecule, the “genipin dose necessary for eradication of B. subtilis” value ([1]; 1:1 DMSO:PBS, 72 hours, room temperature) was “at least 2.6 mg/10^6 spores”, the spore strips sterilized ([1]; 2% genipin in 1:1 DMSO:PBS, 72 hours) was 3 of 4 and the spore strip viability/sterility ([1]; 2%-10% genipin in 1:1 DMSO:PBS, 24 hours, room temperature) was “demonstrated bacterial viability; also recorded: unable to sterilize any spore strips; also recorded: yellow (growth)”. The spore strips sterilized ([1]; 6% genipin in 1:1 DMSO:PBS, 72 hours) was 3 of 4, the spore strips sterilized ([1]; 10% genipin in 1:1 DMSO:PBS, 72 hours) was “all” and the “colonies at the 1-log reduction level” value ([2]; 0.63% genipin in 1:1 DMSO:PBS) was “no colonies”. For the same molecule, the “log reduction in B. subtilis viability” value ([2]; 0.63% genipin in PBS, one week treatment (unpublished pilot data)) was 2 log, the “colonies at the 1-log reduction level” value ([2]; 2% genipin in 1:1 DMSO:PBS) was “no colonies” and the “colonies at the 1-log reduction level” value ([2]; 6% genipin in 1:1 DMSO:PBS) was “no colonies”. For the same molecule, the “colonies at the 1-log reduction level” value ([2]; 10% genipin in 1:1 DMSO:PBS) was “three 10% genipin-treated spore strips yielded no colonies”, the “spore morphology versus untreated spore strips” value (B. subtilis spores) was “no appreciable morphological differences” and the “log reduction in spore viability” value (B. pumilus spores; 2.6 mg-42 mg genipin/10^6 spores in 1:1 DMSO:PBS, room temperature) was “at least 6 log”. The spore strips sterilized (B. pumilus spores; all genipin doses (2.6-42 mg per 10^6 spores) in 1:1 DMSO:PBS) was 4/4, the spore strips sterilized ([3]; 2.6 mg genipin/10^6 spores in 1:1 DMSO:PBS, 72 hours) was “Three of 4” and the “log reduction in spore viability” value ([3]; 2.6 mg-42 mg genipin/10^6 spores in 1:1 DMSO:PBS, 72 hours, room temperature) was “at least 6 log”. The spore strips sterilized ([3]; 8.3 mg genipin/10^6 spores in 1:1 DMSO:PBS, 72 hours) was 4/4, the spore strips sterilized ([3]; 25 mg genipin/10^6 spores in 1:1 DMSO:PBS, 72 hours) was “Three of 4” and the spore strips sterilized ([3]; 42 mg genipin/10^6 spores in 1:1 DMSO:PBS, 72 hours) was 4/4. The sterile vials ([4]; 0.63% genipin in 50% DMSO/50% PBS, room temperature (Example 12)) was 2/5, the “log reduction in spore viability” value ([4]; 0.63% genipin in PBS, 37° C.) was no less than 6 log and the sterile vials ([4]; 0.63% genipin, all doses of DMSO (0-50%) in PBS, 37° C.) was 5/5. For the same molecule, the “cytotoxicity compared with glutaraldehyde” value (3T3 fibroblasts) was “substantially less cytotoxic than glutaraldehyde”, the clastogenic response [5] was “does not cause clastogenic response” and the “relative solubility in solvents” value ([6]; organic solvents versus PBS) was “more soluble in ethanol than in PBS; also recorded: substantially more soluble in organic solvents”. For the same molecule, the “solubility in PBS” value ([6]; phosphate-buffered saline) was “approximately 1%”, the cell death (cells in culture) was “complete cell death” and the “fibroblast proliferation on treated tissue” value (fibroblasts [7]; bovine pericardia treated with 0.625% genipin in PBS, within three days) was “substantial fibroblast proliferation”. The cell viability [8] was “up to 87%”, the “concentration sufficient for cytotoxicity” value (fibroblasts [9]) was 80-100 ppm and the “concentration sufficient for cytotoxicity” value (osteoblasts) was 80-100 ppm.

For `C[S+](C)[O-]` [DMSO, dimethyl sulfoxide], the toxicity rate ([10]; DMSO washed off or less than 10% DMSO) is listed as 0.3%, the toxicity incidence ([10]; stem cells cryopreserved with 10% DMSO, review of 34,000 transplants) is listed as 1.5% and the microbicidal concentration [11] is listed as 8 to 40%.

For `C=O` [formalin, reference compound], the spore strip viability/sterility ([1]; 10% formalin, 24 hours, room temperature) was “orange (sterile)”, the “colonies at the 1-log reduction level” value ([2]; 10% formalin) was “no colonies” and the spore strip viability/sterility ([3]; 10% formalin, 72 hours) was “presence of spore viability”. The “spore strips from which G. stearothermophilus grew” value ([3]; 10% formalin, 72 hours) was 100%, the “time required to demonstrate viability” value ([3]; 10% formalin, 72 hours treatment) was 2.25 ± 0.50 days and the spore strip viability/sterility ([3]; 10% formalin, 72 hours, listed as 10% formalin) was “demonstrated viability”.

For `O=CCCCC=O` [glutaraldehyde, reference compound], the “fibroblast proliferation on treated tissue” value (fibroblasts [7]; 0.625% glutaraldehyde-treated pericardia, after seven days) is listed as “no cellular proliferation”.
